Several values for one entry are separate records, joined by “and”; a condition that tells them apart may be missing. Equal values may be shown once.
Tested on: children undergoing tonsillectomy
Assay: Opioid-related adverse effects and PACU stay by sex, age and morphine dose (Example 6)
[1] = F, total morphine 0.2-<0.3 mg/kg
[2] = M, total morphine 0.2-<0.3 mg/kg
[3] = girls 8-13 years, total morphine <0.3 mg/kg
[4] = girls 8-13 years, total morphine >=0.3 mg/kg
[5] = girls <8 years, total morphine <0.3 mg/kg
[6] = girls <8 years, total morphine >=0.3 mg/kg
[7] = girls >13 years, total morphine <0.3 mg/kg
[8] = girls >13 years, total morphine >=0.3 mg/kg

Description: This was a prospective clinical observational study using a standard perioperative anesthetic and surgical practices and standard postoperative nursing care within the tonsillectomy population.
Clinical criteria for OSA designation included sleep disordered breathing with a history of snoring and either sleep pauses lasting more than 10 seconds or daytime drowsiness. Children were excluded from the study if they or their parents were non-English speaking.
As part of T/TA standard practice at this institution, all children receive prophylactic ondansetron (0.1 mg/kg) and dexamethasone (0.1 mg/kg) intraoperatively. Anesthesia is induced via sevoflurane inhaled induction followed by a propofol (2 mg/kg) bolus to facilitate endotracheal intubation. Anesthesia was maintained with sevoflurane without the use of neuromuscular blockade.
Adverse effects were measured by two sets of binary outcomes: 1) opioid-related side effects including RD, nausea/vomiting (PONV) and pruritus; 2) prolonged PACU stay secondary to respiratory depression or nausea/vomiting.
Duration of PACU stay (time to achieve PACU discharge readiness) was defined as the duration in PACU before achieving the following discharge criteria. […] This discharge readiness time is different from actual PACU discharge time as delays due to social reasons (e.g. waiting for car ride, etc.) were not included.
Prior to analyses, data quality was examined. […] To assess the sex effect, outcome measurements were first compared between boys and girls with and without OSA stratification. Continuous variables were compared using t-test or Wilcoxon rank-sum test and categorical variables were compared using Fisher's exact test.
Effects of age, weight, BMI z scores, and OSA were also tested as covariates for all the outcomes. When significant effects were detected (p<0.05), covariates were included in the final models. Binary outcomes were analyzed using logistic regression. Maximum NRS was analyzed using linear regression. Maximum FLACC score was analyzed by using a zero-inflated negative binomial model because of the inflated frequency of score 0. The total number of analgesic interventions followed a Poisson distribution and was analyzed using a generalized linear model.

CN1CC[C@]23c4c5ccc(O)c4O[C@H]2[C@@H](O)C=C[C@H]3[C@H]1C5 [morphine]
PONV, number of cases (F, All): 22
PONV, proportion (F, All): (10%)
Prolonged stay in PACU due to PONV, proportion (F, All): (5%)
Prolonged stay in PACU due to RD, number of cases (F, All): 11
Prolonged stay in PACU due to RD, proportion (F, All): (5%)
Pruritus, number of cases (F, All): 88
Pruritus, proportion (F, All): (41%)
RD, proportion (F, All): (9%)
PONV, number of cases (F, OSA No): 11
PONV, proportion (F, OSA No): (9%)
Prolonged stay in PACU due to PONV, proportion (F, OSA No): (2%)
Prolonged stay in PACU due to RD, number of cases (F, OSA No): 5
Prolonged stay in PACU due to RD, proportion (F, OSA No): (4%)
Pruritus, number of cases (F, OSA No): 41
Pruritus, proportion (F, OSA No): (33%)
RD, number of cases (F, OSA No): 9
RD, proportion (F, OSA No): (7%)
PONV, number of cases (F, OSA Yes): 11
PONV, proportion (F, OSA Yes): (12%)
Prolonged stay in PACU due to PONV, proportion (F, OSA Yes): (8%)
Prolonged stay in PACU due to RD, number of cases (F, OSA Yes): 6
Prolonged stay in PACU due to RD, proportion (F, OSA Yes): (6%)
Pruritus, number of cases (F, OSA Yes): 47
Pruritus, proportion (F, OSA Yes): (50%)
RD, proportion (F, OSA Yes): (12%)
PONV, number of cases (%) [1]: 8 (16)
Prolonged stay in PACU due to PONV, number of cases (%) [1]: 3 (6)
Prolonged stay in PACU due to RD, number of cases (%) [1]: 1 (2)
Pruritus, number of cases (%) [1]: 42 (84)
PONV, number of cases (%) (F, total morphine <0.2 mg/kg): 4 (10)
Prolonged stay in PACU due to PONV, number of cases (%) (F, total morphine <0.2 mg/kg): 2 (5)
Prolonged stay in PACU due to RD, number of cases (%) (F, total morphine <0.2 mg/kg): 2 (5)
Pruritus, number of cases (%) (F, total morphine <0.2 mg/kg): 29 (73)
PONV, number of cases (%) (F, total morphine ≥0.3 mg/kg): 10 (43)
Prolonged stay in PACU due to PONV, number of cases (%) (F, total morphine ≥0.3 mg/kg): 5 (22)
Prolonged stay in PACU due to RD, number of cases (%) (F, total morphine ≥0.3 mg/kg): 8 (35)
Pruritus, number of cases (%) (F, total morphine ≥0.3 mg/kg): 17 (74)
RD, number of cases (%) (F, total morphine ≥0.3 mg/kg): 12 (52)
PONV, number of cases (M, All): 14
PONV, proportion (M, All): (6%)
Prolonged stay in PACU due to PONV, proportion (M, All): (4%)
Prolonged stay in PACU due to RD, number of cases (M, All): 13
Prolonged stay in PACU due to RD, proportion (M, All): (6%)
Pruritus, number of cases (M, All): 79
Pruritus, proportion (M, All): (36%)
RD, proportion (M, All): (8%)
PONV, number of cases (M, OSA No): 7
PONV, proportion (M, OSA No): (6%)
Prolonged stay in PACU due to PONV, proportion (M, OSA No): (5%)
Prolonged stay in PACU due to RD, number of cases (M, OSA No): 8
Prolonged stay in PACU due to RD, proportion (M, OSA No): (6%)
Pruritus, number of cases (M, OSA No): 51
Pruritus, proportion (M, OSA No): (41%)
RD, number of cases (M, OSA No): 12
RD, proportion (M, OSA No): (10%)
PONV, number of cases (M, OSA Yes): 7
PONV, proportion (M, OSA Yes): (7%)
Prolonged stay in PACU due to PONV, proportion (M, OSA Yes): (2%)
Prolonged stay in PACU due to RD, number of cases (M, OSA Yes): 5
Prolonged stay in PACU due to RD, proportion (M, OSA Yes): (5%)
Pruritus, number of cases (M, OSA Yes): 28
Pruritus, proportion (M, OSA Yes): (30%)
RD, number of cases (M, OSA Yes): 6
RD, proportion (M, OSA Yes): (6%)
PONV, number of cases (%) [2]: 7 (15)
Prolonged stay in PACU due to PONV, number of cases (%) [2]: 3 (6)
Prolonged stay in PACU due to RD, number of cases (%) [2]: 3 (6)
Pruritus, number of cases (%) [2]: 35 (76)
RD, number of cases (%) [2]: 6 (13)
PONV, number of cases (%) (M, total morphine <0.2 mg/kg): 6 (18)
Prolonged stay in PACU due to PONV, number of cases (%) (M, total morphine <0.2 mg/kg): 4 (12)
Prolonged stay in PACU due to RD, number of cases (%) (M, total morphine <0.2 mg/kg): 5 (15)
Pruritus, number of cases (%) (M, total morphine <0.2 mg/kg): 24
RD, number of cases (%) (M, total morphine <0.2 mg/kg): 4 (12)
PONV, number of cases (%) (M, total morphine ≥0.3 mg/kg): 1 (4)
Prolonged stay in PACU due to PONV, number of cases (%) (M, total morphine ≥0.3 mg/kg): 1 (4)
Prolonged stay in PACU due to RD, number of cases (%) (M, total morphine ≥0.3 mg/kg): 5 (20)
Pruritus, number of cases (%) (M, total morphine ≥0.3 mg/kg): 20 (80)
RD, number of cases (%) (M, total morphine ≥0.3 mg/kg): 8 (32)
PONV, number of cases (%) [3]: 2 (5)
Prolonged stay in PACU due to PONV, number of cases (%) [3]: 2 (5)
Prolonged stay in PACU due to RD, number of cases (%) [3]: 1 (2)
Respiratory depression (RD), number of cases (%) [3]: 4 (9)
PONV, number of cases (%) [4]: 1 (11)
Prolonged stay in PACU due to PONV, number of cases (%) [4]: 1 (11)
Prolonged stay in PACU due to RD, number of cases (%) [4]: 3 (33)
Respiratory depression (RD), number of cases (%) [4]: 5 (56)
PONV, number of cases (%) [5]: 7 (19)
Prolonged stay in PACU due to PONV, number of cases (%) [5]: 2 (5)
Prolonged stay in PACU due to RD, number of cases (%) [5]: 2 (5)
Respiratory depression (RD), number of cases (%) [5]: 3 (8)
PONV, number of cases (%) [6]: 6 (60)
Prolonged stay in PACU due to PONV, number of cases (%) [6]: 4 (40)
Prolonged stay in PACU due to RD, number of cases (%) [6]: 4 (40)
Respiratory depression (RD), number of cases (%) [6]: 5 (50)
PONV, number of cases (%) [7]: 1 (9)
Prolonged stay in PACU due to PONV, number of cases (%) [7]: 1 (9)
Prolonged stay in PACU due to RD, number of cases (%) [7]: 0 (0)
Respiratory depression (RD), number of cases (%) [7]: 1 (9)
PONV, number of cases (%) [8]: 0 (0)
Prolonged stay in PACU due to PONV, number of cases (%) [8]: 0 (0)
Prolonged stay in PACU due to RD, number of cases (%) [8]: 1 (25)
Respiratory depression (RD), number of cases (%) [8]: 2 (50)
probability of all opioid adverse effects except for pruritus (girls, morphine exceeded 0.3 mg/kg, multivariate models): increased significantly
duration of stay in PACU (white boys, <0.3 mg/kg total morphine): 88.3 ± 3.6 min
duration of stay in PACU (white boys, ≥0.3 mg/kg total morphine): 99.7 ± 6.4 min
duration of stay in PACU (white girls, <0.3 mg/kg total morphine): 82.2 ± 3.3 min
duration of stay in PACU (white girls, ≥0.3 mg/kg total morphine, 0.3 mg/kg): 111 ± 6.6 min and 111.1 ± 6.6 min
